Like-named read-outs stand apart in the source and are kept apart here.
Assays:
Cbl-b = Cbl-b (Homo sapiens, UniProt Q13191); assay: Cbl-b inhibition assay (Cbl-b activity assay, FRET, Biological Example 1; 100 mM NaCl, 60 nM Src kinase); format: biochemical; conditions: upper bound stated in text lists; read-out: IC50 values in the Cbl-b inhibition assay of Biological Example 1
Procedure, shortened: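 TR-FRET assay using N-terminal biotinylated Avi-tagged Cbl-b bound to streptavidin-terbium, Src kinase for Cbl-b phosphorylation, and UbcH5B irreversibly conjugated to Bodipy-Fluorescein-ubiquitin. Phosphorylated Cbl-b binds UbcH5B-Ub, bringing the fluorophores together; inhibition is read as loss of FRET signal.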

T-cell [1] = assay: IL-2 secretion from T-cells co-stimulated with anti-CD3 and anti-CD28 antibody (Biological Example 2); format: cell-based, human; conditions: Homo sapiens, T-cell
Procedure, shortened: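 No assay protocol given; T-cells stimulated with anti-CD3 alone or anti-CD3 plus anti-CD28, with or without Cbl-b inhibitor. Activation read as IL-2 secretion or CD25 surface staining, expressed as fold over baseline from uninhibited cells […].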

T-cell [2] = assay: IL-2 secretion from T-cells stimulated with anti-CD3 antibody alone (Biological Example 2); format: cell-based, human; conditions: T-cell, read-out: IL-2 secretion Anti-CD3 stimulation; for fold induction at 1 µM: 1 μM Cbl-b inhibitor; for fold induction at 8 µM: 8 μM Cbl-b inhibitor
T-cell [3] = assay: CD25 cell surface staining on T-cells stimulated with anti-CD3 antibody alone (Biological Example 2); format: cell-based, human; conditions: T-cell, read-out: CD25 staining Anti-CD3 stimulation; for fold induction at 1 µM: 1 μM Cbl-b inhibitor; for fold induction at 8 µM: 8 μM Cbl-b inhibitor
[4] = fold change over baseline, 0.3 μM Cbl-b inhibitor, primary human total T-cells, read-out: IL-2 secretion Anti-CD3/Anti-CD28 stimulation
[5] = fold change over baseline, 1 μM Cbl-b inhibitor, primary human total T-cells, read-out: IL-2 secretion Anti-CD3/Anti-CD28 stimulation
[6] = fold change over baseline, 4 μM Cbl-b inhibitor, primary human total T-cells, read-out: IL-2 secretion Anti-CD3/Anti-CD28 stimulation
[7] = fold change over baseline, primary human total T-cells
[8] = Homo sapiens, fold change over baseline (anti-CD3/anti-CD28 stimulated T-cells without inhibitor)
[9] = 0.3 μM compound, primary human total T-cells, baseline = anti-CD3/anti-CD28 stimulated cells without inhibitor, read-out: IL-2 secretion, Anti-CD3/Anti-CD28 stimulation, fold change over baseline
[10] = 1 μM compound, primary human total T-cells, baseline = anti-CD3/anti-CD28 stimulated cells without inhibitor, read-out: IL-2 secretion, Anti-CD3/Anti-CD28 stimulation, fold change over baseline

Chain of Cbl-b (Q13191 36-427): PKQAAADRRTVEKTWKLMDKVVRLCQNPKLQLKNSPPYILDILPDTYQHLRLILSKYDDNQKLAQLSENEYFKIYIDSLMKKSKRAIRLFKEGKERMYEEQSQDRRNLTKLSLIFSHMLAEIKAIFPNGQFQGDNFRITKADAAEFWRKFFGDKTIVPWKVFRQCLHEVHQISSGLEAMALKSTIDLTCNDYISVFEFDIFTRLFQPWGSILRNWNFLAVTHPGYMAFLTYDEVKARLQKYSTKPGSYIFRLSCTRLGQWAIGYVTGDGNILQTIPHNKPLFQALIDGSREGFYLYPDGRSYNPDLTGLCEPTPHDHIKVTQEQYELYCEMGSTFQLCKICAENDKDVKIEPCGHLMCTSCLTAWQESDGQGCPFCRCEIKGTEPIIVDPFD

SMILES | IC50 (Cbl-b) [nM] | fold induction at 0.3 µM (T-cell [1]; [4]) | fold induction at 1 µM (T-cell [1]; [5]) | fold induction at 4 µM (T-cell [1]; [6]) | fold induction at 1 µM (T-cell [2]; [7]) | fold induction at 8 µM (T-cell [2]; [7]) | fold induction at 1 µM (T-cell [3]; [7]) | fold induction at 8 µM (T-cell [3]; [7]) | fold induction at 0.3 µM (T-cell [1]; 0.3 μM Cbl-b inhibitor, fold change over baseline (anti-CD3/anti-CD28 stimulated T-cells without inhibitor), read-out: IL-2 secretion Anti-CD3/Anti-CD28 stimulation) | fold induction at 1 µM (T-cell [1]; 1 μM Cbl-b inhibitor, fold change over baseline (anti-CD3/anti-CD28 stimulated T-cells without inhibitor), read-out: IL-2 secretion Anti-CD3/Anti-CD28 stimulation) | fold induction at 1 µM (T-cell [2]; [8]) | fold induction at 1 µM (T-cell [3]; [8]) | fold induction at 0.3 µM (T-cell [1]; [9]) | fold induction at 1 µM (T-cell [1]; [10]) | fold induction at 4 µM (T-cell [1]; 4 μM compound, primary human total T-cells, baseline = anti-CD3/anti-CD28 stimulated cells without inhibitor, read-out: IL-2 secretion, Anti-CD3/Anti-CD28 stimulation, fold change over baseline)
C[C@H](Cc1nncn1C)c1cccc(NC(=O)c2cc(O[C@@H]3CC[C@@H](O)C3)ccn2)c1 (relative stereo) [Compound 205, trans-4-(3-hydroxycyclopentyloxy)-N-(3-((R)-1-(4-methyl-4H-1,2,4-triazol-3-yl)propan-2-yl)phenyl)picolinamide] | ≤ 100 | 2.51 to 5 | 2.51 to 5 | 5 to 7.5 | 0.051 to 0.1 | 0.101 to 0.15 | 0.801 to 1 | > 1 |  |  |  |  |  |  | 
C[C@H](c1cc2c(c(C(F)(F)F)c1)CN(c1cccc(C3([C@H](F)c4nncn4C)COC3)c1)C2=O)N1CCC2(CC2)C1 (stereo in doubt) [Example 575, 6-((R)-1-(5-Azaspiro[2.4]heptan-5-yl)ethyl)-2-(3-(3-((S)-fluoro(4-methyl-4H-1,2,4-triazol-3-yl)methyl)oxetan-3-yl)phenyl)-4-(trifluoromethyl)isoindolin-1-one] | ≤ 100 |  |  |  |  |  |  |  | > 7.5 | > 7.5 | > 0.201 | > 1 |  |  | 
Cc1ccc(C(=O)Nc2cccc([C@H](C)Sc3nncn3C)c2)nc1C1CC1 [Compound 54, (S)-6-cyclopropyl-5-methyl-N-(3-(1-((4-methyl-4H-1,2,4-triazol-3-yl)thio)ethyl)phenyl)picolinamide] | ≤ 100 | 1.01 to 2.5 | 2.51 to 5 | > 7.5 | < 0.05 | 0.151 to 0.2 | 0.601 to 0.8 | 0.801 to 1 |  |  |  |  |  |  | 
Cc1cc(C(=O)Nc2cccc([C@H](C)Sc3nncn3C)c2)nc(C(F)(F)F)c1 [Compound 65, (S)-4-methyl-N-(3-(1-((4-methyl-4H-1,2,4-triazol-3-yl)thio)ethyl)phenyl)-6-(trifluoromethyl)picolinamide] | ≤ 100 | 1.01 to 2.5 | 1.01 to 2.5 | 2.51 to 5 | < 0.05 | 0.101 to 0.15 | 0.601 to 0.8 | > 1 |  |  |  |  |  |  | 
C[C@H](Sc1nncn1C)c1cccc(NC(=O)c2cc(C3CC3)cc(C(F)(F)F)n2)c1 [Compound 67, (S)-4-cyclopropyl-N-(3-(1-((4-methyl-4H-1,2,4-triazol-3-yl)thio)ethyl)phenyl)-6-(trifluoromethyl)picolinamide] | ≤ 100 | 1.01 to 2.5 | 1.01 to 2.5 | 2.51 to 5 | < 0.05 | 0.101 to 0.15 | 0.801 to 1 | > 1 |  |  |  |  |  |  | 
C[C@H](Sc1nncn1C)c1cccc(NC(=O)c2cccc(C3CC3)n2)c1 [Compound 72, (S)-6-cyclopropyl-N-(3-(1-((4-methyl-4H-1,2,4-triazol-3-yl)thio)ethyl)phenyl)picolinamide] | ≤ 100 | 1.01 to 2.5 | 2.51 to 5 | 2.51 to 5 | 0.051 to 0.1 | 0.151 to 0.2 | < 0.6 | 0.801 to 1 |  |  |  |  |  |  | 
C[C@H](Sc1nncn1C)c1cccc(NC(=O)c2ccnc(C3CC3)n2)c1 [Compound 76, 2-cyclopropyl-A-[3-[(1S)-1-[(4-methyl-1,2,4-triazol-3-yl)sulfanyl]ethyl]phenyl]pyrimidine-4-carboxamide] | ≤ 100 | < 1 | 2.51 to 5 | 5 to 7.5 | < 0.05 | 0.051 to 0.1 | 0.601 to 0.8 | > 1 |  |  |  |  |  |  | 
C[C@H](Sc1nncn1C)c1cccc(NC(=O)c2ccc(CO)c(C3CC3)n2)c1 [Compound 89, 6-cyclopropyl-5-(hydroxymethyl)-N-[3-[(1S)-1-[(4-methyl-1,2,4-triazol-3-yl)sulfanyl]ethyl]phenyl]pyridine-2-carboxamide] | ≤ 100 | 1.01 to 2.5 | 2.51 to 5 | 5 to 7.5 | < 0.05 | 0.101 to 0.15 | < 0.6 | 0.801 to 1 |  |  |  |  |  |  | 
C[C@H](Cc1nncn1C)c1cccc(NC(=O)c2cc3cc(N4CCNCC4)ccc3cn2)c1 [Compound 472, N-{3-[(2R)-1-(4-methyl-4H-1,2,4-triazol-3-yl)propan-2-yl]phenyl}-6-(piperazin-1-yl)isoquinoline-3-carboxamide] | ≤ 100 |  |  |  |  |  |  |  |  |  |  |  | < 1 | 1.01 to 2.5 | 2.51 to 5
Cn1cnnc1CC1(c2cccc(N3Cc4c(cc(CN5CC6(CC6)C5)cc4C(F)(F)F)C3=O)c2)COC1 [Compound 487, 6-{5-azaspiro[2.3]hexan-5-ylmethyl}-2-(3-{3-[(4-methyl-1,2,4-triazol-3-yl)methyl]oxetan-3-yl}phenyl)-4-(trifluoromethyl)-3H-isoindol-1-one] | ≤ 100 |  |  |  |  |  |  |  |  |  |  |  | > 7.5 | > 7.5 | 
Cn1cnnc1CC1(c2cccc(NC(=O)c3cc(CN4CC[C@H](F)C4)cc(C4CC4)n3)c2)COC1 [Compound 496, 6-cyclopropyl-4-{[(3S)-3-fluoropyrrolidin-1-yl]methyl}-N-(3-{3-[(4-methyl-1,2,4-triazol-3-yl)methyl]oxetan-3-yl}phenyl)pyridine-2-carboxamide] | ≤ 100 |  |  |  |  |  |  |  |  |  |  |  | > 7.5 | > 7.5 | 
Cn1cnnc1CC1(c2cccc(NC(=O)c3cc(CN4CCC5(CC5)C4)cc(C4CC4)n3)c2)COC1 [Compound 519, 4-((5-azaspiro[2.4]heptan-5-yl)methyl)-6-cyclopropyl-N-(3-(3-((4-methyl-4H-1,2,4-triazol-3-yl)methyl)oxetan-3-yl)phenyl)picolinamide] | ≤ 100 |  |  |  |  |  |  |  |  |  |  |  | > 7.5 | > 7.5 | 
Cn1cnnc1CC1(c2cccc(N3Cc4c(cc(CN5CCC6(CC6)C5)cc4C(F)(F)F)C3=O)c2)COC1 [Compound 520, 6-((5-azaspiro[2.4]heptan-5-yl)methyl)-2-(3-(3-((4-methyl-4H-1,2,4-triazol-3-yl)methyl)oxetan-3-yl)phenyl)-4-(trifluoromethyl)isoindolin-1-one] | ≤ 100 |  |  |  |  |  |  |  |  |  |  |  | > 7.5 | > 7.5 | 
C[C@@H](c1cc2c(c(C(F)(F)F)c1)CN(c1cccc(C3(Cc4nncn4C)COC3)c1)C2=O)N1C[C@H]2C[C@H]2C1 [Compound 541a, 6-((1S)-1-(3-azabicyclo[3.1.0]hexan-3-yl)ethyl)-2-(3-(3-((4-methyl-4H-1,2,4-triazol-3-yl)methyl)oxetan-3-yl)phenyl)-4-(trifluoromethyl)isoindolin-1-one] | ≤ 100 |  |  |  |  |  |  |  |  |  |  |  | > 7.5 | > 7.5 | 
C[C@@H](c1cc2c(c(C(F)(F)F)c1)CN(c1cccc(C3(Cc4nncn4C)COC3)c1)C2=O)N1CCC(C)(F)CC1 [Example 553a, (S)-6-(1-(4-fluoro-4-methylpiperidin-1-yl)ethyl)-2-(3-(3-((4-methyl-4H-1,2,4-triazol-3-yl)methyl)oxetan-3-yl)phenyl)-4-(trifluoromethyl)isoindolin-1-one] | ≤ 100 |  |  |  |  |  |  |  |  |  |  |  | > 7.5 | > 7.5 | 
C[C@H](c1cc2c(c(C(F)(F)F)c1)CN(c1cccc(C3(Cc4nncn4C)COC3)c1)C2=O)N1CCC(C)(F)CC1 [Example 553b, (R)-6-(1-(4-fluoro-4-methylpiperidin-1-yl)ethyl)-2-(3-(3-((4-methyl-4H-1,2,4-triazol-3-yl)methyl)oxetan-3-yl)phenyl)-4-(trifluoromethyl)isoindolin-1-one] | ≤ 100 |  |  |  |  |  |  |  |  |  |  |  | > 7.5 | > 7.5 | 

Reference: patent publication US20220324835A1 (Nurix Therapeutics, Inc., priority 2018, published 2022)
